Assay results taken from patent US7824745B2, “Benzochromene derivatives” (Merck Patent GmbH, priority 2005, dated 2010).

How the values were obtained:
[1] = Optical anisotropy Δn (589 nm, 20° C.), host mixture ZLI-4792; format: physicochemical; conditions: 5% in ZLI-4792
Description: The host mixture used for determining the applicationally relevant physical parameters is ZLI-4792 from Merck KGaA, Germany. As an exception, the determination of the dielectric anisotropy of dielectrically negative compounds is carried out using ZLI-2857, likewise from Merck KGaA, Germany. The values for the respective compound to be investigated are obtained from the change in the properties, for example the dielectric constants, of the host mixture after addition of the compound to be investigated and extrapolation to 100% of the compound employed. […]
(§1) All concentrations in this application, unless explicitly stated otherwise, are indicated in percent by weight and relate to the corresponding mixture as a whole. All physical properties are and have been determined in accordance with “Merck Liquid Crystals, Physical Properties of Liquid Crystals”, status November 1997, Merck KGaA, Germany, and apply to a temperature of 20° C., unless explicitly stated otherwise. An is determined at 589 nm and Δ∈ at 1 kHz.
The following examples are intended to explain the invention without limiting it. Above and below, percentages are percent by weight. […] V10, V50 and V90 (the threshold voltage, mid-grey voltage and saturation voltage respectively) and V0 (the capacitive threshold voltage) were each determined at 20° C.

[2] = Dielectric anisotropy Δ∈ of the compounds, dissolved in a liquid-crystalline host, capacitance at 1 kHz, extrapolated to 100%; format: physicochemical; conditions: extrapolated from 5% solution in ZLI-2857, 20° C.
Text: In the present application, the term dielectrically positive compounds denotes compounds having a Δ∈ of >1.5, the term dielectrically neutral compounds denotes those in which −1.5≦Δ∈≦1.5, and the term dielectrically negative compounds denotes those having a Δ∈ of <−1.5. The […] of this mixture at 1 kHz in at least one test cell with a layer thickness of about 20 μm having a homeotropic surface alignment and at least one test cell with a layer thickness of about 20 μm having a homogeneous surface alignment. The measurement voltage is typically 0.5 V to 1.0 V, but is always less than the capacitive threshold of the respective liquid-crystal mixture. […]
as §1
The following examples are intended to explain the invention without limiting it. […] V10, V50 and V90 (the threshold voltage, mid-grey voltage and saturation voltage respectively) and V0 (the capacitive threshold voltage) were each determined at 20° C.

Δn [1]: 0.1302
Δ∈ [2]: −7.5
melting point: 108 °C
SMILES: CCCC1CCc2c(c(=O)oc3cc(OCC)ccc23)C1 (stereo not drawn) [Example 1.1, 3-ethoxy-8-propyl-7,8,9,10-tetrahydrobenzo[c]chromen-6-one]
